These results are taken from patent publication US20210051949A1, “SOLID AGROCHEMICAL COMPOSITIONS” (UPL LTD, priority 2018, published 2021).

Data set [1] is described as follows: Comparative study of degradation of metsulfuron methyl in compositions with 2,4-D acid or 2,4-D sodium salt plus picloram (accelerated heat stability). Type of data set: physicochemical. The following applies: for Active content: picloram, metsulfuron methyl. How it is done: Degradation of Metsulfuron Methyl in Compositions with 2,4-D Acid and 2,4-D Sodium Salt: Comparative Study
A comparative study of degradation of metsulfuron methyl in composition of 2,4-D acid and 2,4-D sodium salt in combination with picloram was carried out. The results are summarized in the below table (Table 1):
The study was conducted at 0 days as well as after 14 days at 54° C. (accelerated heat stability conditions).

The nature of data set [2]: Physical parameters (active content, suspensibility, dispersibility, moisture, wet sieve) of a composition of 2,4-D acid, metsulfuron methyl and picloram acid. Also noted: unit not given here. It counts as physicochemical. An excerpt: Physical Parameters of a Composition Comprising 2, 4-D Acid, Metsulfuron Methyl and Picloram Acid:
Physical parameters such as suspensibility, dispersibility has been tested for a composition prepared according to the present invention are listed in the below table (Table 2).
As evident from the Table 2, the physical parameters such as suspensibility and dispersibility of the compositions prepared according to the present invention satisfies the requirement for a stable formulation.

Setting [3] is: composition with 2,4-D acid, 0 days.
Setting [4] is: composition with 2,4-D acid, 14 days at 54° C.
Where [5] appears, read: composition with 2,4-sodium salt, 0 days.
Setting [6] is: composition with 2,4-sodium salt, 14 days at 54° C.

As for `COC(=O)c1ccccc1S(=O)(=O)NC(=O)Nc1nc(C)nc(OC)n1` [Metsulfuron methyl], the Active content in data set [1] (setting [3]) was 46.06 gm; in data set [1] (setting [4]), 44.42 gm; in data set [1] (setting [5]), 49.78 gm; in data set [1] (setting [6]), 43.88 gm. Also, the “Active ingredient (content)” value in data set [2] (14 Day AHS) is on record as 39.30; in data set [2] (Ambient) it was 42.3. Moreover, the Suspensibility in data set [2] (14 Day AHS) is 99.75; in data set [2] (Ambient), 100.90.
Consider `Nc1c(Cl)c(Cl)nc(C(=O)O)c1Cl` [Picloram acid, Picloram], for which the Active content in data set [1] (setting [3]) came out at 98.96 gm; in data set [1] (setting [4]) it was 98.05 gm; in data set [1] (setting [5]) it was 95.65 gm; in data set [1] (setting [6]) it was 95.59 gm. For the same compound, the figures for the “% degradation after 14 days” value in data set [1] (setting [4]) and in data set [1] (setting [6]) were 0.92% and 0.06%, respectively. Moreover, the results for the “Active ingredient (content)” value in data set [2] (14 Day AHS) and in data set [2] (Ambient) were 105.5 and 106.5, respectively. Also, the Suspensibility in data set [2] (14 Day AHS) stood at 99.61; in data set [2] (Ambient) it was 100.50.
Take `O=C(O)COc1ccc(Cl)cc1Cl` [2,4-D acid, 2,4-dichlorophenoxy acetic acid]: the Active content stood at 333.03 gm in data set [1] (setting [3]), 325.01 gm in data set [1] (setting [4]), 325.28 gm in data set [1] (setting [5]) and 328.01 gm in data set [1] (setting [6]). For the same compound, the “% degradation after 14 days” value was 2.41% in data set [1] (setting [4]) and 0.84% in data set [1] (setting [6]). For the same compound, the figures for the “Active ingredient (content)” value in data set [2] (14 Day AHS) and in data set [2] (Ambient) were 319.6 and 320.5, respectively. The Suspensibility in data set [2] (14 Day AHS) is given as 99.10; in data set [2] (Ambient), 99.96.
